Results: patent publication US8992891B2, “Therapeutic approaches for treating CMT and related disorders” (Pharnext, priority 2007, dated 2015)

Experiments:
PMP22 mRNA = PMP22 mRNA level by quantitative RT-PCR after drug stimulation of rat Schwann cell primary culture; type: cell-based; set-up: key: +: significantly decreases PMP22 levels compared to control; conditions: rat primary Schwann cells, drug incubation 24 hrs
Experimental: After cells being platted in 12 well-dishes, the medium is replaced by a defined medium consisting in a mix of DMEM-F12 (Invitrogen #21331020) complemented by 1% of N2 supplement (Invitrogen #17502), 1% L-Glutamine (Invitrogen #25030024) 2.5% FBS (Sciencell #0025), 0.02 μg/ml of corticosterone (Sigma #C2505), 4 μM Forskolin and 50 μg/ml of gentamycin. Growth factors are not added to this medium, to promote SC differentiation
24 hours later, the medium is replaced by a defined medium (DMEM-F12) complemented with 1% Insulin-Transferrin-Selenium-X (ITS, Invitrogen #51300), 16 μg/ml of Putrescine (Sigma #P5780), 0.02 μg/ml of corticosterone and 50 μg/ml of gentamicin. At this step, neither progesterone nor forskolin are present in the medium.
One day later, Schwann cells are stimulated by combinations of drugs or drugs alone during 24 hrs (3 wells/condition). The preparation of each compound is performed just prior to its addition to the cell culture medium.
Drugs are added to a defined medium composed of DMEM-F12, with 1% Insulin-Transferrin-Selenium-X (ITS, Invitrogen #51300), 16 μg/ml of Putrescine, 0.02 μg/ml of corticosterone, 10 nM Progesterone and 50 μg/ml of gentamicin. The absence of Forskolin during drug stimulation avoids adenylate cyclase saturation.
Quantitative RT-PCR is used to compare the levels of PMP22 mRNA after drug stimulation, relative with housekeeping Ribosomal L13A mRNA in rat Schwann cell primary culture.
After rinsing with cold sterilized PBS, total RNAs from each cell sample are extracted and purified from SC using the Qiagen RNeasy micro kit (Qiagen #74004). Nucleic acids are quantified by Nanodrop spectrophotometer using 1 μl of RNA sample. The RNA integrity is determined through a BioAnalyzer (Agilent) apparatus.
RNAs are reverse-transcribed into cDNA according to standard protocol. cDNA templates for PCR amplification are synthesized from 200 ng of total RNA using SuperScript II reverse-transcriptase (Invitrogen #18064-014) for 60 min at 42° C. in the presence of oligo(dT), in a final volume of 20 μl.
cDNAs are subjected to PCR amplification using the ? LightCycler® 480 ? system (Roche Molecular Systems Inc.) Each cDNA are diluted five times before being used for PCR amplification. 2.5 μl of this cDNAs enters the PCR reaction solution (final volume of 10 μl). Preliminary experiments ensured that quantitation was done in the exponential phase of the amplification process for both sequences and that expression of the reference gene was uniform in the different culture conditions.
PCR reaction is performed by amplification of 500 nM of forward primer of rat PMP22 (NM_017037), 5-GGAAACGCGAATGAGGC-3 (SEQ ID NO: 1), and 500 nM of reverse primer 5-GTTCTGTTTGGTTTGGCTT-3 (SEQ ID NO: 2) (amplification of 148-bp). A 152-bp fragment of the RPL13A ribosomal (NM_173340) RNA is amplified in parallel in separate reactions for normalization of the results by using 500 nM of forward primer 5-CTGCCCTCAAGGTTGTG-3 (SEQ ID NO: 3), and 500 nM of reverse primer 5-[…]-3 (SEQ ID NO: 4).
We used FRET chemistry to perform RT-Q-PCR analysis. FRET probes are composed of 0.3 μM of Pmp22-FL-5-[…] (SEQ ID NO: 5) or Rpl13A-FL-5-TCGGGTGGAAGTACCAGCC (SEQ ID NO: 6), labelled at their 3′ end with a donor fluorophore dye (Fluorescein). 0.15 μM Red640 probes are defined as follows: Pmp22-red-5′-[…]- (SEQ ID NO: 7) or Rpl13A-red-5′-[…] (SEQ ID NO: 8), labelled at their 5′ end with an acceptor fluorophore dye (Rhodamine Red 640).
Each PCR reaction contained 2.5 μl cDNA template in a final volume of 10 μl of master mix kit (Roche #04-887301001).
The following PCR conditions are used: 10 sec at 95° C., 10 sec at 63° C. and 12 sec at 72° C. and 30 sec at 40° C. (Forty amplification cycles). The relative levels of PMP22 gene expression is measured by determining the ratio between the products generated from the target gene PMP22 and the endogenous internal standard RPL13A. […]

PMP22 protein = PMP22 protein expression analysis by flow cytometry (FACS) in Schwann cells; type: cell-based, rat; set-up: key to Protein (PMP22 expression decrease): +: significantly decreases PMP22 levels compared to control; conditions: rat primary Schwann cells, FACS, 24 hrs
Experimental: One day later, Schwann cells are stimulated by combinations of drugs or drugs alone during 24 hrs (3 wells/condition). The preparation of each compound is performed just prior to its addition to the cell culture medium. Drugs are added to a defined medium composed of DMEM-F12, with 1% Insulin-Transferrin-Selenium-X (ITS, Invitrogen #51300), 16 μg/ml of Putrescine, 0.02 μg/ml of corticosterone, 10 nM Progesterone and 50 μg/ml of gentamicin. The absence of Forskolin during drug stimulation avoids adenylate cyclase saturation. 8 hrs, 24 hrs and 48 hrs after drugs incubation, supernatants are recovered, centrifuged and frozen. SC are detached with trypsin-EDTA. As soon as the majority of cells are in suspension, the trypsin is neutralised using DMEM with 10% FCS. Supernatants with cells are recovered and centrifuged. The pellets of cells are transferred in micro tubes, washed in PBS once and fixed with a specific solution (AbCys #Reagent A BUF09B). 10 minutes later, cells are rinsed once with PBS and kept at 4° C. Five days after cell fixation, all cell preparations with different incubation times are labelled using the following protocol. […] Cells are then centrifuged at 7000 rpm for 5 minutes and cell pellets are rinsed once in PBS. A secondary antibody is added, coupled to Alexa Fluor 488 (goat anti-rabbit IgG, Molecular Probes #A11008, 1/100), for one hour at room temperature. Cells are then centrifuged at 7000 rpm for 5 minutes and cell pellets are rinsed once in PBS. The labelling is increased adding a tertiary antibody coupled to Alexa Fluor 488 (chicken anti-goat IgG, Molecular Probes #A21467, 1/100) for one hour incubation, at room temperature. Cells are then rinsed once in PBS. Control without any antibody (unlabelled cells) is performed to determine the level of autofluorescence and adapted the sensitivity of the photomultiplicators. Control with both secondary and tertiary antibodies but without primary antibody, is performed to assess non specific binding of antibodies. Data acquisition and analysis are performed with a FACS Array cytometer and FACS Array software (Becton Dickinson) on 5000 cells. Forward Scatter (FSC) correlated with cell volume (size) and Side Scatter (SSC) depending on inner complexity of cells (granularity) are analysed. For expression of PMP22, analysis is performed within the total cells and percent of positive cells is calculated. Positive cells are cells with fluorescence intensity higher than the control with secondary antibody. We tested the ability of some drugs to inhibit PMP22 protein expression (FACS analysis). […] The results of the action of some individual drugs on the protein level of PMP22 are also shown on table 1 above.

PMP22 = conditions: transgenic rodent models with over expression of PMP22; cited from earlier work

Row | Structure (SMILES) | mRNA (PMP22 expression decrease) (PMP22 mRNA) | Protein (PMP22 expression decrease) (PMP22 protein) | PMP22 expression in the transgenic animals (PMP22)
1 | NCC(CC(=O)O)c1ccc(Cl)cc1 (stereo not drawn) [Baclofen] | + | – | –
2 | O=C(O)Cc1ccccc1Nc1c(Cl)cccc1Cl [Diclofenac] | + | + | –
3 | CCN(CC)C(=S)SSC(=S)N(CC)CC [Disulfiram] | + | – | –
4 | C[C@]12CC[C@@H]3c4ccc(O)cc4CC[C@H]3[C@@H]1CC[C@@H]2O [Estradiol-b, Estradiol] | + | – | –
5 | CC(C)OC(=O)C(C)(C)Oc1ccc(C(=O)c2ccc(Cl)cc2)cc1 [Fenofibrate] | + | – | –
6 | CC(C(=O)O)c1ccc(-c2ccccc2)c(F)c1 (stereo not drawn) [Flurbiprofen] | + | + | –
7 | O=C(CCCN1CCC(O)(c2ccc(Cl)cc2)CC1)c1ccc(F)cc1 [Haloperidol] | + | – | –
8 | COc1ccc2c(c1)c(CC(=O)O)c(C)n2C(=O)c1ccc(Cl)cc1 [Indomethacin] | + | + | –
9 | CC(C)NCC(O)c1ccc(O)c(O)c1 (stereo not drawn) [Isoproterenol] | + | – | –
10 | CC(C(=O)O)c1cccc(C(=O)c2ccccc2)c1 (stereo not drawn) [Ketoprofen] | + | + | –
11 | Cc1cnc(NC(=O)C2=C(O)c3ccccc3S(=O)(=O)N2C)s1 [Meloxicam] | + | + | –
12 | CC#C[C@]1(O)CC[C@H]2[C@@H]3CCC4=CC(=O)CCC4=C3[C@@H](c3ccc(N(C)C)cc3)C[C@@]21C [Mifepristone] | + | – | –
13 | CC(C)(O)c1ccccc1CC[C@@H](SCC1(CC(=O)O)CC1)c1cccc(/C=C/c2ccc3ccc(Cl)cc3n2)c1 [Montelukast] | + | – | –
14 | O=C1CC[C@@]2(O)[C@H]3Cc4ccc(O)c5c4[C@@]2(CCN3CC2CC2)[C@H]1O5 [Naltrexone] | + | – | –
15 | CCC(C)(C)C(=O)O[C@H]1C[C@@H](C)C=C2C=C[C@H](C)[C@H](CC[C@@H]3C[C@@H](O)CC(=O)O3)[C@H]21 [Simvastatin] | + | – | –
16 | OC[C@@H](O)[C@@H](O)[C@H](O)[C@@H](O)CO [Sorbitol, D-Sorbitol] | + | – | –
17 | C[C@]12CC[C@H]3[C@@H](CC[C@@]45O[C@@H]4C(O)=C(C#N)C[C@]35C)[C@@H]1CC[C@@H]2O [Trilostane] | + | – | –
18 | O=C1O[C@H]([C@@H](O)CO)C(O)=C1O [ascorbic acid] | – | – | decreased this expression
19 | CN(C)c1ccc([C@H]2C[C@]3(C)[C@@H](CC[C@]3(O)CCCO)[C@@H]3CCC4=CC(=O)CCC4=C32)cc1 [onapristone] | – | – | decreased this expression
